Each structure is given as a SMILES string. Structures can show the parent of a compound that is named as a salt.

Experimental findings from patent publication US6001849A, “Furopyridine, thienopyridine pyrrolopyridine useful in controlling chemical synaptic transmission” (Abbott Laboratories, priority 1997, dated 1999) are described below.

The target of the first test is neuronal nicotinic acetylcholine receptors. In words: [3H]-cytisine ligand-receptor binding assay (crude synaptic membranes from whole rat brain). The settings on record: Table 1; [3H]-cytisine 1.25 nM, 4° C., 60 min; Ki by Cheng and Prusoff; read-out: [^3 H]-Cyt Binding. The procedure:
For the purpose of identifying compounds as nicotinic acetylcholinergic agents which are capable of interacting with neuronal nicotinic acetylcholine receptors in the brain, a ligand-receptor binding assay was carried out as the initial screen. Compounds of the present invention were effective at interacting with neuronal nicotinic acetylcholine receptors as assayed for their ability to displace radioligand from neuronal nicotinic acetylcholine receptors labeled with [^3 H]-cytisine ([^3 H]-CYT).
A. Protocol For Determination of Nicotinic Acetylcholine Receptor Binding Potencies of Ligands
Binding of [^3 H]-CYT to nicotinic acetylcholine receptors was accomplished using crude synaptic membrane preparations from whole rat brain (Pabreza et al., Molecular Pharmacol., 1990, 39:9). Washed membranes were stored at -80° C. prior to use. Frozen aliquots were slowly thawed and resuspended in 20 volumes of buffer (containing: 120 mM NaCl, 5 mM KCl, 2 mM MgCl2, 2 mM CaCl2 and 50 mM Tris-Cl, pH 7.4 @4° C.). After centrifuging at 20,000×g for 15 minutes, the pellets were resuspended in 30 volumes of buffer. Homogenate (containing 125-150 μg protein) was added to triplicate tubes containing concentrations of test compound and [^3 H]-CYT (1.25 nM) in a final volume of 500 μL. Samples were incubated for 60 minutes at 4° C., then rapidly filtered through Whatman GF/B filters presoaked in 0.5% polyethylimine using 3×4 mL of ice-cold buffer. The filters were counted in 4 mL of Ecolume® (ICN). Nonspecific binding was determined in the presence of 10 μM (-)-nicotine and values were expressed as a percentage of total binding.
Take `Cl.Cl.c1cc2cc([C@@H]3CCCN3)oc2cn1` [Example 9, 2-(2-(S)-pyrrolidinyl)furo[2,3-c]pyridine dihydrochloride]: the Ki came to 250 nM.
With `c1cnc2cc([C@H]3CC[C@H]4CCCN43)oc2c1` [Example 18, endo-2-(Hexahydro-1H-3-(R)-pyrrolizinyl)furo[3,2-b]pyridine dihydrochloride], the Ki turned out to be 38 nM.
Still for that read-out and setting: as for `CN1CCC[C@H]1c1cc2cnccc2o1` [Example 37, 2-(1-methyl-2-(S)-pyrrolidinyl)furo[3,2-c]pyridine dihydrochloride], the figure is 1760 nM; as for `CN1CCC[C@@H]1c1cc2nc(Cl)c(Cl)cc2o1` [Example 40, 5,6-Dichloro-2-(1-methyl-2-(R)-pyrrolidinyl)furo[3,2-b]pyridine hydrochloride], 32 nM; as for `c1cnc2cc([C@H]3N[C@@H]4CC[C@H]3C4)oc2c1` [Example 41, 2-((1R,4S)-2-aza-3-(S)-bicyclo[2.2.1]heptyl)-furo[3,2-b]pyridine dihydrochloride], 81 nM.
The same measure, in the same setting: as for `Clc1ccc2oc([C@H]3N[C@@H]4CC[C@H]3C4)cc2n1` [Example 43, 2-((1R,4S)-2-aza-3-(S)-bicyclo[2.2.1]heptyl)-5-chloro-furo[3,2-b]pyridine dihydrochloride], the figure is 453 nM; as for `CN1[C@@H]2CC[C@@H](C2)[C@H]1c1cc2nc(Cl)ccc2o1` [Example 44, 2-((1R,4t)-2-aza-3-(S)-bicyclo[2.2.1]heptyl)-5-chloro-2-methylfuro[3,2-b]pyridine dihydrochloride], 5 nM.
The same measure, in the same setting: the figure for `Clc1cc2oc([C@H]3N[C@@H]4CC[C@H]3C4)cc2nc1Cl` [Example 45, 2-((1R,4S)-2-aza-3-(S)-bicyclo[2.2.1]heptyl)-5,6-dichlorofuro[3,2-b]pyridine dihydrochloride] is 205 nM; for `Brc1cnc2cc([C@@H]3CCCN3)oc2c1` [Example 46, 6-bromo-2-(2-(S)-pyrrolidinyl)furo[3,2-b]pyridine dihydrochloride] it is 468 nM.
For `CN1CCC[C@H]1c1cc2ncc(Br)cc2o1` [Example 47, 6-bromo-2-(1-methyl-2-(S)-pyrrolidinyl)furo[3,2-b]pyridine dihydrochloride], the Ki came out at 38 nM.
On the same count and under the same terms, the figure for `CN1CCC[C@@H]1c1cc2nc(Cl)c(Br)cc2o1` [Example 50, 6-bromo-5-chloro-2-(-1-methyl-2(R)-pyrrolidinyl)furo[3,2-b]pyridine hydrochloride] is 46 nM.
Still for that read-out and setting: the figure for `CN1CCC[C@H]1c1cc2nccc(Cl)c2o1` [Example 51, 7-chloro-2-(1-methyl-2-(S)-pyrrolidinyl)furo[3,2-b]pyridine hydrochloride] is 443 nM.

Still in this test, the particulars now being: Table 2; [3H]-cytisine binding; read-out: Binding.
As for `c1ccc(-c2cnc3cc([C@@H]4CCCN4)oc3c2)cc1` [Example 53, 2-((S)-pyrrolidinyl)-6-phenylfuro[3,2-b]pyridine dihydrochloride], the Ki was 335 nM.
For `CN1CCC[C@H]1c1cc2ncc(-c3ccccc3)cc2o1` [Example 54, 2-(1-methyl-2-(S)-pyrrrolidinyl)-6-phenylfuro[3,2-b]pyridinedihydrochloride], the Ki was determined as 104 nM.
For the compound `CN1CCC[C@@H]1c1cc2nc(Cl)c(-c3ccccc3)cc2o1` [Example 56, 5-chloro-2-(1-methyl-2-(R)-pyrrolidinyl)-6-phenyl furo[3,2-b]pyridine hydrochloride], the Ki came out at 12.9 nM.
Turning to `Clc1nc2cc([C@H]3CCCN3)oc2cc1C=Cc1ccncc1` [Example 58, 5-chloro-2-(2-(R)-pyrrolidinyl)-6-(2-(4-pyridylethenyl)furo[3,2-b]pyridine hydrochloride], the Ki is 0.31 nM.
For the compound `CN1CCC[C@H]1c1cc2cccnc2o1` [Example 134, 2-(1-methyl-2-(S)-pyrrolidinyl)furo[2,3-b]pyidine hydrochloride], the Ki is 6.9 nM.

The same test, now with this note: preferred compounds.
On to `Clc1nc2cc([C@H]3CCCN3)oc2cc1C=Cc1ccncc1` [Example 58, 5-chloro-2-(2-(R)-pyrrolidinyl)-6-(2-(4-pyridylethenyl)furo[3,2-b]pyridine hydrochloride], for which the “binding to the nicotinic acetylcholine receptor (in words)” value is “most potent binders”.

Another test concerns neuronal nicotinic acetylcholine receptors in IMR-32 cells. Description: 86Rb+ efflux assay in IMR-32 neuroblastoma cells. It is filed as cell-based, human. The note with it: Table 1; inhibition of efflux elicited by 100 μM (S)-nicotine; 30 μM. The protocol:
B. Protocols for the Determination of Functional Effects of Nicotinic Acetylcholine Receptor Ligands on Synaptic Transmission
Experimental cells were seeded at a density of 500,000 cells/mL into a 24-well tissue culture dish. Plated cells were allowed to proliferate for at least 48 hours before loading with 2 μCi/mL of ^86 Rb^+ (35 Ci/mmol) overnigh at 37° C.
As for `c1cnc2cc([C@H]3CC[C@H]4CCCN43)oc2c1` [Example 18, endo-2-(Hexahydro-1H-3-(R)-pyrrolizinyl)furo[3,2-b]pyridine dihydrochloride], the “IMR-32 % Inhibition @ (30 μM)” value was 55%.

Still in this test, the particulars now being: Table 1; maximal response, percent relative to 100 μM (S)-nicotine.
`Cl.Cl.c1cc2cc([C@@H]3CCCN3)oc2cn1` [Example 9, 2-(2-(S)-pyrrolidinyl)furo[2,3-c]pyridine dihydrochloride] displayed an IMR-32 % max of 83%.
